In US20020198510A1, “Method for nasal application of a medicinal substance” (priority 2001, published 2002):
“Also recorded” adds a separate entry of the source. Read-outs that look alike come from different tables or passages of the source.

Tests used:
[1] = Evans Blue Dye distribution after administration into the nose of mice; format: in vivo; set-up: key to Dye in Stomach / Dye in Lung: -: no dye is present; traces: minimal amounts are present when examined with the unaided eye but that do not clearly show on photographs; yes: dye is clearly visible; +: dye is clearly visible; ++: heavy dye presence; settings: for Dye in Larynx / Dye in Nasal Cavity / Dye in Nose Skin / Dye in Intestine / Dye in Oral Cavity / Dye in Stomach / Dye in Esophagus Lower / Dye in Esophagus Upper / Dye in Trachea Lower / Dye in Trachea Upper / Dye in Lung: 60 min to sacrifice
Description: (§1) To show the distribution of liquid administered through the nose, Evans Blue Dye (0.3%) was administered through a micropipette tip into the nose of mice and chinchillas at various doses, at various levels of sedation or anesthesia, and with the animals in various positions.

[2] = set-up: species or system chinchillas; settings: in vivo
Description: as §1

[3] = Dye 10 μl single dose, Supine/Supine, anesthesia 200 μl (heavy)
[4] = Dye 10 μl single dose, Upright/Not held, 0 μl (Alert)
[5] = Dye 10 μl single dose, Upright/Not held, anesthesia 200 μl (heavy)
[6] = Dye 20 μl single dose, Supine/Supine, anesthesia 200 μl (heavy)
[7] = Dye 20 μl single dose, Upright/Not held, anesthesia 200 μl (heavy)
[8] = Dye 20 μl, 2 μl/nare at 2 min interval, Supine/Supine, anesthesia 200 μl (heavy)
[9] = Dye 20 μl, 2 μl/nare at 5 min interval, Supine/Supine, anesthesia 200 μl (heavy)
[10] = Dye 20 μl, 2 μl/nare at t = 0, 2, 7, 9 and 11 min, Supine/Supine, anesthesia 200 μl (heavy)
[11] = Dye 30 μl single dose, Prone/Not held, 0 μl (Alert)
[12] = Dye 30 μl single dose, Supine/Supine, anesthesia 200 μl (heavy)
[13] = Dye 30 μl single dose, Upright/Not held, 0 μl (Alert)
[14] = Dye 30 μl single dose, Upright/Not held, anesthesia 120 μl (Mod)
[15] = Dye 30 μl single dose, Upright/Not held, anesthesia 200 μl (heavy)
[16] = Dye 30 μl, 1 drop/5 sec interval, Upright/Not held, anesthesia 200 μl (heavy)
[17] = Dye 30 μl, 2 μl/nare at 5 min interval, Supine/Supine, anesthesia 200 μl (Mod*)
[18] = Dye 30 μl, 2 μl/nare at 5 min interval, Supine/Supine, anesthesia 200 μl (heavy)
[19] = Dye 30 μl, 2 μl/nare at 5 min interval, Supine/Supine, anesthesia 350 μl (heavy)
[20] = Dye 30 μl, 2 μl/nare at 5 min interval, Supine/Supine, anesthesia 400 μl (heavy)
[21] = Dye 30 μl, 5 μl/nare at 10 min interval, Supine/Supine, anesthesia 200 μl (heavy)
[22] = Dye 40 μl single dose, Upright/Not held, anesthesia 200 μl (heavy)
[23] = Dye 40 μl, 2 μl/nare at 5 min interval, Supine/Supine, anesthesia 200 μl (heavy)
[24] = Dye 50 μl single dose, Upright/Not held, 0 μl (Alert)
[25] = Dye 50 μl single dose, Upright/Not held, anesthesia 120 μl (Mod)
[26] = Dye 50 μl single dose, Upright/Not held, anesthesia 200 μl (heavy)
[27] = Dye 50 μl, 5 μl/nare at 30 sec interval, Upright/Not held, anesthesia 120 μl (Mod)

Cc1cc(-c2ccc(/N=N/c3ccc4c(S(=O)(=O)[O-])cc(S(=O)(=O)[O-])c(N)c4c3O)c(C)c2)ccc1/N=N/c1ccc2c(S(=O)(=O)[O-])cc(S(=O)(=O)[O-])c(N)c2c1O.[Na+].[Na+].[Na+].[Na+] [Dye, Evans Blue Dye]
Dye in the stomach ([1]; 5 μl and 2 μl increments (Table 8)): reduced dye in the stomach at lower incremental doses than larger incremental doses
Dye in Larynx [1, 3]: Yes
Dye in Nasal Cavity [1, 3]: Yes
Dye in Nose Skin [1, 3]: Yes
Dye in Intestine [1, 4]: Yes
Dye in Larynx [1, 4]: Yes
Dye in Nasal Cavity [1, 4]: Yes
Dye in Oral Cavity [1, 4]: Yes
Dye in Stomach [1, 4]: + and Traces
Dye in Esophagus Lower [1, 5]: Traces; also recorded: Yes/Yes
Dye in Esophagus Upper [1, 5]: Traces/; also recorded: Yes/Yes
Dye in Larynx [1, 5]: Yes
Dye in Nasal Cavity [1, 5]: Yes
Dye in Nose Skin [1, 5]: Yes
Dye in Oral Cavity [1, 5]: Yes
Dye in Stomach [1, 5]: Traces and +
Dye in Trachea Lower [1, 5]: Traces
Dye in Trachea Upper [1, 5]: Traces/
Dye in Esophagus Upper [1, 6]: Traces
Dye in Larynx [1, 6]: Yes
Dye in Nasal Cavity [1, 6]: Yes
Dye in Nose Skin [1, 6]: Yes
Dye in Oral Cavity [1, 6]: Yes
Dye in Trachea Lower [1, 6]: Traces
Dye in Trachea Upper [1, 6]: Traces/
Dye in Esophagus Lower [1, 7]: Yes/Yes
Dye in Esophagus Upper [1, 7]: Yes/Yes
Dye in Larynx [1, 7]: Yes
Dye in Nasal Cavity [1, 7]: Yes
Dye in Nose Skin [1, 7]: Yes
Dye in Oral Cavity [1, 7]: Yes
Dye in Stomach [1, 7]: +
Dye in Esophagus Lower [1, 8]: Yes/Yes
Dye in Esophagus Upper [1, 8]: Yes/Yes
Dye in Larynx [1, 8]: Yes
Dye in Nasal Cavity [1, 8]: Yes
Dye in Nose Skin [1, 8]: Yes
Dye in Oral Cavity [1, 8]: Yes
Dye in Stomach [1, 8]: +
Dye in Esophagus Upper [1, 9]: Yes
Dye in Larynx [1, 9]: Yes
Dye in Nasal Cavity [1, 9]: Yes
Dye in Nose Skin [1, 9]: Yes
Dye in Oral Cavity [1, 9]: Yes
Dye in Larynx [1, 10]: Yes
Dye in Nasal Cavity [1, 10]: Yes
Dye in Nose Skin [1, 10]: Yes
Dye in Intestine [1, 11]: Yes
Dye in Larynx [1, 11]: Traces
Dye in Nasal Cavity [1, 11]: Yes
Dye in Oral Cavity [1, 11]: Traces
Dye in Stomach [1, 11]: ++ and +
Dye in Esophagus Lower [1, 12]: Yes/Yes
Dye in Esophagus Upper [1, 12]: Yes/Yes
Dye in Larynx [1, 12]: Yes
Dye in Nasal Cavity [1, 12]: Yes
Dye in Nose Skin [1, 12]: Yes
Dye in Oral Cavity [1, 12]: Yes
Dye in Trachea Lower [1, 12]: Yes/Yes
Dye in Trachea Upper [1, 12]: Yes/Yes
Dye in Intestine [1, 13]: Yes
Dye in Larynx [1, 13]: Yes
Dye in Nasal Cavity [1, 13]: Yes
Dye in Nose Skin [1, 13]: Yes
Dye in Oral Cavity [1, 13]: Yes
Dye in Stomach [1, 13]: ++ and +
Dye in Esophagus Lower [1, 14]: Yes/Yes
Dye in Esophagus Upper [1, 14]: Yes/Yes
Dye in Larynx [1, 14]: Yes
Dye in Lung [1, 14]: Traces
Dye in Nasal Cavity [1, 14]: Yes
Dye in Nose Skin [1, 14]: Yes
Dye in Oral Cavity [1, 14]: Yes
Dye in Stomach [1, 14]: ++ and +
Dye in Trachea Lower [1, 14]: Yes/Yes
Dye in Trachea Upper [1, 14]: Yes/Yes
Dye in Esophagus Lower [1, 15]: Yes/Yes
Dye in Esophagus Upper [1, 15]: Yes/Yes
Dye in Larynx [1, 15]: Yes
Dye in Lung [1, 15]: +
Dye in Nasal Cavity [1, 15]: Yes
Dye in Nose Skin [1, 15]: Yes
Dye in Oral Cavity [1, 15]: Yes
Dye in Trachea Lower [1, 15]: Yes/Yes
Dye in Trachea Upper [1, 15]: Yes/Yes
Dye in Esophagus Lower [1, 16]: Yes/Yes
Dye in Esophagus Upper [1, 16]: Yes/Yes
Dye in Larynx [1, 16]: Yes
Dye in Nasal Cavity [1, 16]: Yes
Dye in Nose Skin [1, 16]: Yes
Dye in Oral Cavity [1, 16]: Yes
Dye in Stomach [1, 16]: +
Dye in Esophagus Lower [1, 17]: Yes/Yes
Dye in Esophagus Upper [1, 17]: Yes/Yes
Dye in Larynx [1, 17]: Yes
Dye in Nasal Cavity [1, 17]: Yes
Dye in Nose Skin [1, 17]: Yes
Dye in Oral Cavity [1, 17]: Yes
Dye in Stomach [1, 17]: +
Dye in Esophagus Upper [1, 18]: Traces
Dye in Larynx [1, 18]: Yes
Dye in Nasal Cavity [1, 18]: Yes
Dye in Nose Skin [1, 18]: Yes
Dye in Oral Cavity [1, 18]: Yes
Dye in Esophagus Upper [1, 19]: Traces
Dye in Larynx [1, 19]: Yes
Dye in Nasal Cavity [1, 19]: Yes
Dye in Nose Skin [1, 19]: Yes
Dye in Oral Cavity [1, 19]: Yes
Dye in Trachea Upper [1, 19]: Traces
Dye in Larynx [1, 20]: Yes
Dye in Nasal Cavity [1, 20]: Yes
Dye in Nose Skin [1, 20]: Yes
Dye in Oral Cavity [1, 20]: Yes
Dye in Esophagus Lower [1, 21]: Yes/Yes
Dye in Esophagus Upper [1, 21]: Yes/Yes
Dye in Larynx [1, 21]: Yes
Dye in Lung [1, 21]: + and Traces
Dye in Nasal Cavity [1, 21]: Yes
Dye in Nose Skin [1, 21]: Yes
Dye in Stomach [1, 21]: +
Dye in Trachea Lower [1, 21]: Yes/Yes
Dye in Trachea Upper [1, 21]: Yes/Yes
Dye in Esophagus Lower [1, 22]: Yes/Yes
Dye in Esophagus Upper [1, 22]: Yes/Yes
Dye in Intestine [1, 22]: Yes
Dye in Larynx [1, 22]: Yes
Dye in Lung [1, 22]: +
Dye in Nasal Cavity [1, 22]: Yes
Dye in Nose Skin [1, 22]: Yes
Dye in Oral Cavity [1, 22]: Yes
Dye in Stomach [1, 22]: +
Dye in Trachea Lower [1, 22]: Yes/Yes
Dye in Trachea Upper [1, 22]: Yes/Yes
Dye in Esophagus Lower [1, 23]: Yes/Yes
Dye in Esophagus Upper [1, 23]: Yes/Yes
Dye in Larynx [1, 23]: Yes
Dye in Nasal Cavity [1, 23]: Yes
Dye in Nose Skin [1, 23]: Yes
Dye in Oral Cavity [1, 23]: Yes
Dye in Stomach [1, 23]: ++
Dye in Esophagus Lower [1, 24]: Traces
Dye in Esophagus Upper [1, 24]: Traces/
Dye in Intestine [1, 24]: Yes
Dye in Larynx [1, 24]: Yes
Dye in Nasal Cavity [1, 24]: Yes
Dye in Nose Skin [1, 24]: Yes
Dye in Oral Cavity [1, 24]: Yes
Dye in Stomach [1, 24]: ++ and +
Dye in Esophagus Lower [1, 25]: Yes/Yes
Dye in Esophagus Upper [1, 25]: Yes/Yes
Dye in Larynx [1, 25]: Yes
Dye in Nasal Cavity [1, 25]: Yes
Dye in Nose Skin [1, 25]: Yes
Dye in Oral Cavity [1, 25]: Yes
Dye in Stomach [1, 25]: ++
Dye in Trachea Lower [1, 25]: Yes/Yes; also recorded: Traces
Dye in Trachea Upper [1, 25]: Yes/Yes and Yes/
Dye in Esophagus Lower [1, 26]: Yes/Yes
Dye in Esophagus Upper [1, 26]: Yes/Yes
Dye in Larynx [1, 26]: Yes
Dye in Lung [1, 26]: + and ++
Dye in Nasal Cavity [1, 26]: Yes
Dye in Nose Skin [1, 26]: Yes
Dye in Oral Cavity [1, 26]: Yes
Dye in Stomach [1, 26]: +
Dye in Trachea Lower [1, 26]: Yes/Yes
Dye in Trachea Upper [1, 26]: Yes/Yes
Dye in Esophagus Lower [1, 27]: Yes/Yes
Dye in Esophagus Upper [1, 27]: Yes/Yes
Dye in Larynx [1, 27]: Yes
Dye in Nasal Cavity [1, 27]: Yes
Dye in Nose Skin [1, 27]: Yes
Dye in Oral Cavity [1, 27]: Yes
Dye in Stomach [1, 27]: +
Dye retention in nasal passages and sinuses by position ([1]; mice, prone versus supine position): the converse is true for mice
Dye retention in nasal passages and sinuses by alertness ([1]; mouse, alert versus anesthetized): an anesthetized state is preferred
Dye reaching stomach and esophagus ([1]; optimal divided dose conditions for the mouse (Table 9)): essentially no dye reached the stomach and very little dye reached the esophagus
Dye retention in nasal passages and sinus cavities ([1]; series of low doses versus a single larger dose): more material can be retained in the nasal passages and sinus cavities than when a single larger dose is used
Dye retention in nasal passages and sinuses versus loss ([1]; when a lower dose is used): more dye is retained in the nasal passages and sinuses and less dye is lost to the esophagus, stomach, intestines and lungs
Dye retention in nasal passages and sinuses by alertness [2]: more dye is retained in the nasal passages and sinuses when administered to an alert chinchilla
Dye retention in nasal passages and sinuses by position [2]: more dye is retained in the nasal passages and sinuses in the chinchilla, when the dye is administered in the prone position than when administered in the supine position
